{"source": "patent US20080008771A1", "about": "“Nitric Oxide Dioxygenase Inhibitors” (priority 2004, published 2008)", "key": {"Caco-2 cells [1]": {"system": "Caco-2 cells", "test": "NO consumption (NO metabolism) by Caco-2 cells", "settings": "for % Activity, Caco-2: agent 100 μM, 15 min incubation, 100% = 25.4±1.4 nmol NO per minute per 107 cells", "quoted_text": "(§1) Initial rates of NO consumption were measured at 1 μM NO unless otherwise stated, and all rates were corrected for background rates of NO decomposition. A milliunit of activity is defined as the amount metabolizing 1 nanomol NO per min. […] Rotenone (0.5 μM) was included in CO inhibition assays to block respiration and O2 depletion. […] Cell permeabilization was monitored by the loss of NO metabolic activity.\n(§2) Error bars represent the SD of three independent trials.\n(§3) In addition to cyanide and CO, heme-binding imidazoles, a panel of substrate-inhibitors of cytochrome P450s, inhibitors of the NO-binding heme oxygenases, and free radical scavengers were surveyed for effects on NO metabolism by Caco-2 and A549 cells. All agents were used at concentrations showing minimal cytotoxicity as defined by <5% decrease in trypan blue exclusion following 15 min exposure (data not shown). Caco-2 and A549 cells were grown, harvested and assayed for NO consumption activity following a 15 min incubation in 2 ml DPBS containing 5 mM glucose and 100 μg/ml cycloheximide with the indicated agent as previously described. Data represent the mean ±SD of three independent exposures."}, "A549 cells": {"system": "A549 cells", "test": "NO consumption (NO metabolism) by A549 cells", "type": "cell-based, human", "settings": "for Inhibition of NO metabolic activity, A549: porphyrin 100 μM; for activity at 20 µM: agent 20 μM", "source_text": ". The results are show in Table II."}, "[2]": {"system": "microsomal NO metabolism (Caco-2 microsomes)", "settings": "for IC50: read-out: IC50, microsomal NO metabolism", "protocol": "NO metabolism by cell fractions was assayed in 100 mM Na-Hepes, pH 7.8, 0.25 M sucrose, 1 mM EDTA and 1 mM EGTA (Sucrose Buffer) containing 15 μM Cu,ZnSOD and 100 μM NADPH. Cell fractions were added with a 50 μl Hamilton syringe to give a total of 100-750 μg protein. For determination of O2 dependence of microsomal NO metabolism, the 2 ml reaction was sparged with N2 for 10 minutes to remove O2, and O2 was depleted from microsomal membranes by stirring membranes under a stream of N2 in a rubber septum-sealed tube on ice. Alternatively, residual O2 was removed by incubating the reaction mix with 16 units glucose oxidase, 1 mM glucose and 260 units catalase for 5 minutes prior to adding NO and microsomes. O2 was added from O2 saturated buffer to achieve various O2 concentrations.\nData represent the average of two or more two independent trials.\nNO consumption by Caco-2 microsomes was assayed as previously described."}, "[3]": {"biological_target": "T1, NADPH-cytochrome P450 oxidoreductase (CYPOR) (Homo sapiens, UniProt P16435)", "T1 sequence (P16435 1-677)": "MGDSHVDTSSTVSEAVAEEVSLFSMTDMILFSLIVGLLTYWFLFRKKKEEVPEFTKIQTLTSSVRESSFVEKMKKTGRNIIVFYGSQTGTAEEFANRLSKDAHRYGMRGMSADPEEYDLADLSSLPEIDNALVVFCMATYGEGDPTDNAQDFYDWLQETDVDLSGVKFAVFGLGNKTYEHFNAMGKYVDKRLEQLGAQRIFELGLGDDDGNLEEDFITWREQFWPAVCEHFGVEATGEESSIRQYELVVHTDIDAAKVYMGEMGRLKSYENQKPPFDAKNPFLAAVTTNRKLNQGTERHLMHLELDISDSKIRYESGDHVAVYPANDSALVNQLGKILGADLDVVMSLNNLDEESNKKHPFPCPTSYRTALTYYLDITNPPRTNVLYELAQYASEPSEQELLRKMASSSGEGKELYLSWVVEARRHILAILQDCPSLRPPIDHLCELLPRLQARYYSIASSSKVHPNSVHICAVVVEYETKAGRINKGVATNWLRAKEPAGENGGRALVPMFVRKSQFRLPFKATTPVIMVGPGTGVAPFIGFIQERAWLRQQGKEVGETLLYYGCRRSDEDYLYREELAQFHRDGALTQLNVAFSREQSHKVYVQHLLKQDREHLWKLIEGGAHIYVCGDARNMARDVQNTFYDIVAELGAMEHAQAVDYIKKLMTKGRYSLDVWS", "test": "CYPOR (cytochrome c reductase) activity", "protocol": "The incubations contained 120 μl of Sucrose Buffer and 30 μl of PBS (8.1 mM Na2HPO4, 1.1 mM KH2PO4, 138 mM NaCl and 2.7 mM KCl, pH 7.4) introduced with IgG or BSA."}, "heme oxygenase": {"biological_target": "heme oxygenase", "settings": "cited from earlier work"}, "S. cerevisiae": {"system": "S. cerevisiae", "test": "NO consumption (NOD) activity within S. cerevisiae", "type": "cell-based, Saccharomyces cerevisiae", "settings": "0 μM to about 20 μM miconazole", "source_text": "Error bars represent the standard deviation of the average of three independent trials."}, "[4]": {"system": "S. cerevisiae parental strain BY4742", "test": "Growth of S. cerevisiae under NO atmosphere", "type": "cell-based, Saccharomyces cerevisiae", "settings": "5 μM miconazole, 960 ppm NO, 21% O2", "quoted_text": "At the time indicated by the arrow, cultures were exposed to an atmosphere containing 960 ppm NO (<2 μM NO in solution) in a 21% O2/N2 balance (lines 2 and 4) or were maintained under an atmosphere of 21% O2 balanced with N2 (lines 1 and 3).\nAt the time indicated by the arrow, cultures were either maintained fewer than 21% O2 balanced with N2 (lines 1 and 3) or were exposed to 960 ppm NO in the 21% O2/N2-balanced atmosphere (lines 2 and 4). Cultures were grown and exposed to gases."}, "[5]": {"biological_target": "T2, E. coli flavohemoglobin (NOD) (Escherichia coli, UniProt P24232)", "T2 sequence (P24232 whole entry)": "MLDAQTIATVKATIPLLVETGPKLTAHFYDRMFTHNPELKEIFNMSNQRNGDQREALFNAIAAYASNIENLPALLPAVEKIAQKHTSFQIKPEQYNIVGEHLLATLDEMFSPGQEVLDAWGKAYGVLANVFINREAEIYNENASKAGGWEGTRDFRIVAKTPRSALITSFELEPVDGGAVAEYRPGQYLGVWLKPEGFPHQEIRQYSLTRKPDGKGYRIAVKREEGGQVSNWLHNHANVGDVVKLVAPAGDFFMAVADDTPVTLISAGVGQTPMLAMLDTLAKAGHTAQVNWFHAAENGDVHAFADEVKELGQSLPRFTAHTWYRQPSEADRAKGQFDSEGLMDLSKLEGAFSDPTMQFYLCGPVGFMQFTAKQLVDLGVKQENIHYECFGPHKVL", "description": "(§4) The specific activities of the E. coli, A. eutrophus and S. cerevisiae NOD were 185, 90 and 105 NO heme^−1 s^−1, respectively."}, "flavohemoglobins": {"biological_target": "flavohemoglobins", "test": "CO binding to ferrous hemes of flavohemoglobins", "settings": "read-out: dissociation equilibrium constants, ferrous hemes of flavohemoglobins"}, "flavohemoglobins (NOD)": {"biological_target": "flavohemoglobins (NOD)", "test": "CO inhibition of flavohemoglobin NOD activities", "type": "biochemical", "settings": "read-out: Ki, competitive inhibition of NOD activities with respect to O2"}, "Caco-2 cells [6]": {"system": "Caco-2 cells", "quoted_text": "as §1, §2, §3"}, "[7]": {"biological_target": "T3, A. eutrophus flavohemoglobin (Cupriavidus necator, UniProt P39662)", "T3 sequence (P39662 whole entry)": "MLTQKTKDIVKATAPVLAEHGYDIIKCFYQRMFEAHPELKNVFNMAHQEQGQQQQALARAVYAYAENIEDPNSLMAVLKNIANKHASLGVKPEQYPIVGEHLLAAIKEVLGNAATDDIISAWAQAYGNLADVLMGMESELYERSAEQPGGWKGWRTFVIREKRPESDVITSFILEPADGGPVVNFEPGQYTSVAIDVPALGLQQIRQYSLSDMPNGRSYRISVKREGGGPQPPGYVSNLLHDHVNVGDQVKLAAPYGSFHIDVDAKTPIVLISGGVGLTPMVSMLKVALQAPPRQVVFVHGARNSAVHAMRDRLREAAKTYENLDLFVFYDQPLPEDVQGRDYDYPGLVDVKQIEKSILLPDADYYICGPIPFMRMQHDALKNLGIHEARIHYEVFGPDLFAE", "description": "as §4"}, "[8]": {"biological_target": "T3, A. eutrophus flavohemoglobin", "test": "biochemical", "settings": "Apparent Ki", "description": "as §4"}, "[9]": {"biological_target": "T2, E. coli flavohemoglobin (NOD)", "test": "biochemical", "description": "as §4"}, "[10]": {"biological_target": "S. cerevisiae flavohemoglobin (Saccharomyces cerevisiae, UniProt P39676)", "sequence (P39676 whole entry)": "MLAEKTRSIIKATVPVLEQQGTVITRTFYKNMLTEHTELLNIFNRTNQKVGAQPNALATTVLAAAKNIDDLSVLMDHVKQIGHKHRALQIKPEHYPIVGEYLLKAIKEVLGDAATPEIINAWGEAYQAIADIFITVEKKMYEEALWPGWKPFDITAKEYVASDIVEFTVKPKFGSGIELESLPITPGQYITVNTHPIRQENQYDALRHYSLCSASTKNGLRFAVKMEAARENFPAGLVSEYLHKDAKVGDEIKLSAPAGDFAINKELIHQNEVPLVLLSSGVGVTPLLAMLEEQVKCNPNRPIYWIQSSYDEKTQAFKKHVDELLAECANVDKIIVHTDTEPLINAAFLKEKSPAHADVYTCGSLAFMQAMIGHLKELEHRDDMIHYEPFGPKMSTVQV", "test": "biochemical", "description": "as §4"}, "[11]": {"settings": "Homo sapiens, A549, 0.25 h, 15 min incubation"}}, "note": "Where “and” joins values, the source holds several entries; their conditions need not be identical. Equal values may be shown once. Read-outs that look alike come from different tables or passages of the source.", "data": [{"compound": "Nc1ccc(S(=O)(=O)Nc2ccnn2-c2ccccc2)cc1", "note": "[sulfaphenazole]", "values": [{"measurement": "% Activity, Caco-2", "setting": "Caco-2 cells [1]", "result": "97.1 ± 3.0", "unit": "%"}]}, {"compound": "Cc1nc2c([nH]1)c(=O)n(C)c(=O)n2Cc1ccco1", "note": "[furafylline]", "values": [{"measurement": "activity at 10 µM", "setting": "A549 cells; Homo sapiens, A549, 0.25 h, agent 10 μM, 15 min incubation", "result": "98.2 ± 3.1", "unit": "%"}]}, {"compound": "Cc1c(C)c2c(c(C)c1O)CC[C@@](C)(CCC[C@H](C)CCC[C@H](C)CCCC(C)C)O2", "note": "[α-tocopherol]", "values": [{"measurement": "% Activity, microsomal NO metabolism", "setting": "[2]; inhibitor 100 μM", "result": "106.9 ± 3.4", "unit": "%"}]}, {"compound": "C=CC1=C(C)c2cc3[n-]c(cc4[n-]c(cc5nc(cc1n2)C(C)=C5C=C)c(C)c4CCC(=O)O)c(CCC(=O)O)c3C.[Zn+2]", "note": "[Zn2+-protoporphyrin, Zn(II)-protoporphyrin IX]", "values": [{"measurement": "Effect of porphyrins on microsomal NO metabolism", "setting": "[2]", "result": "inhibited microsomal NO metabolism"}, {"measurement": "Inhibition of NO metabolic activity, A549", "setting": "A549 cells", "result": "about 40%"}, {"measurement": "Effect on cytochrome c reduction by microsomal membranes and purified CYPOR", "setting": "[3]", "result": "progressive inhibition of cytochrome c reduction"}]}, {"compound": "O=c1c(O)c(-c2ccc(O)c(O)c2)oc2cc(O)cc(O)c12", "note": "[quercetin]", "values": [{"measurement": "% Activity, microsomal NO metabolism", "setting": "[2]; inhibitor 100 μM", "result": "84.1 ± 4.4", "unit": "%"}]}, {"compound": "C=CCSCC=C", "note": "[diallyl sulfide]", "values": [{"measurement": "% Activity, Caco-2", "setting": "Caco-2 cells [1]", "result": "98.1 ± 1.7", "unit": "%"}]}, {"compound": "Sn(IV)-protoporphyrin IX [Sn4+-protoporphyrin]", "values": [{"measurement": "Inhibition of NO metabolic activity, A549", "setting": "A549 cells", "result": "no effect"}, {"measurement": "Ki", "setting": "heme oxygenase", "result": "< 0.1", "unit": "µM"}]}, {"compound": "COC(=O)[C@@H](N)CCCNC(=N)N[N+](=O)[O-]", "note": "[L-NAME, N ω-nitro-L-arginine methyl ester]", "values": [{"measurement": "% Activity, microsomal NO metabolism", "setting": "[2]; inhibitor 1 mM", "result": "96.7 ± 6.0", "unit": "%"}, {"measurement": "activity at 1000 µM", "setting": "A549 cells; Homo sapiens, A549, 0.25 h, agent 1 mM, 15 min incubation", "result": "101 ± 2.9", "unit": "%"}]}, {"compound": "Clc1ccc(COC(Cn2ccnc2)c2ccc(Cl)cc2Cl)c(Cl)c1", "note": "(stereo not drawn) [miconazole]", "values": [{"measurement": "Effect on NOD activity in S. cerevisiae", "setting": "S. cerevisiae", "result": "inhibition of NOD activity"}, {"measurement": "% Activity, microsomal NO metabolism", "setting": "[2]; 100 µM", "result": "17.0 ± 0.0", "unit": "%"}, {"measurement": "IC50", "setting": "[2]; Caco-2 microsomes", "result": 20, "unit": "µM"}, {"measurement": "Effect on growth of S. cerevisiae together with NO", "setting": "[4]", "result": "synergistically inhibited growth of S. cerevisiae"}, {"measurement": "activity at 20 µM", "setting": "A549 cells; [11]", "result": "38.2 ± 5.9", "unit": "%"}]}, {"compound": "C=CCS[S+]([O-])CC=C", "note": "(stereo not drawn) [Allicin, diallyl thiosulfinate]", "values": [{"measurement": "Effect on isolated E. coli NOD", "setting": "[5]", "result": "inactivates the isolated E. coli NOD"}]}, {"compound": "c1ccc2c(c1)[I+]c1ccccc1-2", "note": "[DPI, Diphenyleneiodonium]", "values": [{"measurement": "Loss of microsomal NO metabolic activity", "setting": "[2]", "result": "Seventy-five percent"}]}, {"compound": "[C-]#[O+]", "note": "[CO, carbon monoxide]", "values": [{"measurement": "Kd", "setting": "flavohemoglobins", "result": "< 0.7", "unit": "µM"}, {"measurement": "Inhibition of microsomal NO consumption", "setting": "[2]; 10 μM CO, 20 μM O2, 1 μM NO", "result": "> 50", "unit": "%"}, {"measurement": "Inhibition of NO metabolism by CO, microsomes", "setting": "[2]; CO:O2 ratio 0.75", "result": "about 75%"}, {"measurement": "Ki", "setting": "flavohemoglobins (NOD)", "result": "~1", "unit": "µM"}, {"measurement": "Inhibition of NO metabolism by CO, cells", "setting": "Caco-2 cells [1]; CO:O2 ratio 0.4", "result": "about 75%"}, {"measurement": "Ki", "setting": "Caco-2 cells [1]; read-out: Ki(CO), competitive inhibition of cellular NO metabolism, 5 μM CO, 12.5 μM O2, competitive with O2", "result": "~3 µM and 3 µM"}]}, {"compound": "Clc1ccc(COC(Cn2ccnc2)c2ccc(Cl)cc2Cl)cc1", "note": "(stereo not drawn) [econazole]", "values": [{"measurement": "% Activity, microsomal NO metabolism", "setting": "[2]; 100 µM", "result": "15.3 ± 0.0", "unit": "%"}, {"measurement": "IC50", "setting": "[2]; Caco-2 microsomes", "result": 10, "unit": "µM"}, {"measurement": "activity at 20 µM", "setting": "A549 cells; [11]", "result": "36.2 ± 4.9", "unit": "%"}]}, {"compound": "C=CC1=C(C)c2cc3[nH]c(cc4nc(cc5[nH]c(cc1n2)c(C)c5CCC(=O)O)C(CCC(=O)O)=C4C)c(C)c3C=C", "note": "[protoporphyrin, Protoporphyrin IX]", "values": [{"measurement": "Effect of porphyrins on microsomal NO metabolism", "setting": "[2]", "result": "inhibited NO metabolism to a significant (p<0.05), albeit lesser, extent"}, {"measurement": "Effect on cytochrome c reduction by microsomal membranes and purified CYPOR", "setting": "[3]; 20 μM, data not shown", "result": "progressive inhibition of cytochrome c reduction"}]}, {"compound": "CC(=O)N1CCN(c2ccc(OCC3COC(Cn4ccnc4)(c4ccc(Cl)cc4Cl)O3)cc2)CC1", "note": "(stereo not drawn) [ketoconazole]", "values": [{"measurement": "% Activity, Caco-2", "setting": "Caco-2 cells [6]", "result": "22.3 ± 4.1", "unit": "%"}, {"measurement": "Fraction inhibited as percentage of total activity, first (major) phase", "setting": "[7]; belongs to the first-phase Ki", "result": "(˜75%)"}, {"measurement": "Fraction inhibited as percentage of total activity, second (minor) phase", "setting": "[7]; belongs to the second-phase Ki", "result": "(˜25%)"}, {"measurement": "% Activity, microsomal NO metabolism", "setting": "[2]; 100 µM", "result": "25.9 ± 2.6", "unit": "%"}, {"measurement": "IC50", "setting": "[2]", "result": 10, "unit": "µM"}, {"measurement": "Ki", "setting": "[8]; first (major) phase", "result": 0.7, "unit": "µM"}, {"measurement": "Ki", "setting": "[8]; second (minor) phase", "result": 25, "unit": "µM"}, {"measurement": "Ki", "setting": "[9]", "result": 5, "unit": "µM"}, {"measurement": "Ki", "setting": "[10]", "result": "> 100", "unit": "µM"}]}]}
